How the values were obtained:
Assay type in all cases: functional
[1] = tested on: SN12C; experiment: Cytotoxicity against human SN12C cells assessed as cell growth at 10^-6 M after 48 hrs by SRB assay; settings: read-out: Activity
[2] = tested on: Malme-3M; experiment: Cytotoxicity against human MALME-3M cells assessed as cell growth at 10^-4 M after 48 hrs by SRB assay; settings: read-out: Activity
[3] = tested on: CAKI-1; experiment: Cytotoxicity against human Caki1 cells assessed as cell growth at 10^-6 M after 48 hrs by SRB assay; settings: CAKI-1, 48 h, read-out: Activity
[4] = tested on: SK-MEL-28; experiment: Cytotoxicity against human SK-MEL-28 cells assessed as cell growth at 10^-4 M after 48 hrs by SRB assay; settings: SK-MEL-28, 48 h, read-out: Activity
[5] = tested on: HOP-62; experiment: Cytotoxicity against human HOP62 cells assessed as cell growth at 10^-4 M after 48 hrs by SRB assay; settings: HOP-62, 48 h, read-out: Activity
[6] = tested on: MDA-MB-231; experiment: Cytotoxicity against human MDA-MB-231 cells assessed as cell growth at 10^-6 M after 48 hrs by SRB assay; settings: MDA-MB-231, 48 h, read-out: Activity
[7] = tested on: OVCAR-8; experiment: Cytotoxicity against human OVCAR8 cells assessed as cell growth at 10^-8 M after 48 hrs by SRB assay; settings: OVCAR-8, 48 h, read-out: Activity
[8] = tested on: OVCAR-3; experiment: Cytotoxicity against human OVCAR3 cells assessed as cell growth at 10^-7 M after 48 hrs by SRB assay; settings: OVCAR-3, 48 h, read-out: Activity
[9] = tested on: DU-145; experiment: Cytotoxicity against human DU145 cells assessed as cell growth at 10^-8 M after 48 hrs by SRB assay; settings: DU-145, 48 h, read-out: Activity
[10] = tested on: NCI-H23; experiment: Cytotoxicity against human NCI-H23 cells after 48 hrs by SRB assay; settings: NCI-H23, 48 h
[11] = tested on: SK-OV-3; experiment: Cytotoxicity against human SKOV3 cells assessed as cell growth at 10^-6 M after 48 hrs by SRB assay; settings: SK-OV-3, 48 h, read-out: Activity
[12] = Cytotoxicity against human Hs578T cells after 48 hrs by SRB assay; settings: Hs-578T
[13] = tested on: HOP-92; experiment: Cytotoxicity against human HOP92 cells assessed as cell growth at 10^-4 M after 48 hrs by SRB assay; settings: HOP-92, 48 h, read-out: Activity
[14] = tested on: NCI-H226; experiment: Cytotoxicity against human NCI-H226 cells assessed as cell growth at 10^-4 M after 48 hrs by SRB assay; settings: NCI-H226, 48 h, read-out: Activity
[15] = tested on: T47D; experiment: Cytotoxicity against human T47D cells assessed as cell growth at 10^-4 M after 48 hrs by SRB assay; settings: read-out: Activity
[16] = Cytotoxicity against human OVCAR4 cells assessed as cell growth at 10^-8 M after 48 hrs by SRB assay; settings: OVCAR-4, 48 h, read-out: Activity
[17] = tested on: DU-145; experiment: Cytotoxicity against human DU145 cells assessed as cell growth at 10^-6 M after 48 hrs by SRB assay; settings: DU-145, 48 h, read-out: Activity
[18] = tested on: SF-295; experiment: Cytotoxicity against human SF295 cells assessed as cell growth at 10^-4 M after 48 hrs by SRB assay; settings: SF-295, 48 h, read-out: Activity
[19] = tested on: T47D; experiment: Cytotoxicity against human T47D cells assessed as cell growth at 10^-7 M after 48 hrs by SRB assay; settings: read-out: Activity
[20] = tested on: HL-60(TB); experiment: Cytotoxicity against human HL-60(TB) cells assessed as cell growth at 10^-6 M after 48 hrs by SRB assay; settings: HL-60, 48 h, read-out: Activity
[21] = tested on: SK-OV-3; experiment: Cytotoxicity against human SKOV3 cells assessed as cell growth at 10^-7 M after 48 hrs by SRB assay; settings: SK-OV-3, 48 h, read-out: Activity
[22] = tested on: M14; experiment: Cytotoxicity against human M14 cells after 48 hrs by SRB assay; settings: M14, 48 h
[23] = tested on: SK-OV-3; experiment: Cytotoxicity against human SKOV3 cells assessed as cell growth at 10^-8 M after 48 hrs by SRB assay; settings: SK-OV-3, 48 h, read-out: Activity
[24] = tested on: HCC 2998; experiment: Cytotoxicity against human HCC2998 cells assessed as cell growth at 10^-6 M after 48 hrs by SRB assay; settings: HCC 2998, 48 h, read-out: Activity
[25] = tested on: LOX IMVI; experiment: Cytotoxicity against human LOXIMVI cells after 48 hrs by SRB assay
[26] = tested on: SF-268; experiment: Cytotoxicity against human SF268 cells assessed as cell growth at 10^-6 M after 48 hrs by SRB assay; settings: SF-268, 48 h, read-out: Activity
[27] = tested on: ACHN; experiment: Cytotoxicity against human ACHN cells assessed as cell growth at 10^-6 M after 48 hrs by SRB assay; settings: read-out: Activity
[28] = tested on: A498; experiment: Cytotoxicity against human A498 cells assessed as cell growth at 10^-6 M after 48 hrs by SRB assay; settings: A498, 48 h, read-out: Activity
[29] = tested on: SK-OV-3; experiment: Cytotoxicity against human SKOV3 cells assessed as cell growth at 10^-4 M after 48 hrs by SRB assay; settings: SK-OV-3, 48 h, read-out: Activity
[30] = tested on: ACHN; experiment: Cytotoxicity against human ACHN cells assessed as cell growth at 10^-8 M after 48 hrs by SRB assay; settings: read-out: Activity
[31] = tested on: NCI-H522; experiment: Cytotoxicity against human NCI-H522 cells after 48 hrs by SRB assay; settings: NCI-H522, 48 h
[32] = tested on: SK-MEL-2; experiment: Cytotoxicity against human SK-MEL-2 cells assessed as cell growth at 10^-6 M after 48 hrs by SRB assay; settings: SK-MEL-2, 48 h, read-out: Activity
[33] = tested on: KM12; experiment: Cytotoxicity against human KM12 cells assessed as cell growth at 10^-6 M after 48 hrs by SRB assay; settings: KM12, 48 h, read-out: Activity
[34] = tested on: SF-539; experiment: Cytotoxicity against human SF539 cells assessed as cell growth at 10^-6 M after 48 hrs by SRB assay; settings: SF-539, 48 h, read-out: Activity
[35] = tested on: SW-620; experiment: Cytotoxicity against human SW620 cells assessed as cell growth at 10^-6 M after 48 hrs by SRB assay; settings: SW-620, 48 h, read-out: Activity
[36] = tested on: T47D; experiment: Cytotoxicity against human T47D cells assessed as cell growth at 10^-8 M after 48 hrs by SRB assay; settings: read-out: Activity
[37] = tested on: TK-10; experiment: Cytotoxicity against human TK10 cells after 48 hrs by SRB assay; settings: TK-10, 48 h
[38] = tested on: TK-10; experiment: Cytotoxicity against human TK10 cells assessed as cell growth at 10^-7 M after 48 hrs by SRB assay; settings: TK-10, 48 h, read-out: Activity
[39] = tested on: A498; experiment: Cytotoxicity against human A498 cells assessed as cell growth at 10^-8 M after 48 hrs by SRB assay; settings: A498, 48 h, read-out: Activity
[40] = tested on: MOLT-4; experiment: Cytotoxicity against human MOLT4 cells assessed as cell growth at 10^-8 M after 48 hrs by SRB assay; settings: MOLT-4, 48 h, read-out: Activity

## C=CCn1c(C)nc2ccc(Nc3nc(Nc4ccc5nc(C)n(CC=C)c5c4)c4ccccc4n3)cc21
[1]
  growth at 1 µM: 90%
[2]
  growth at 100 µM: -5%
[3]
  growth at 1 µM: 90%
[4]
  growth at 100 µM: -39%
[5]
  growth at 100 µM: -36%
[6]
  growth at 1 µM: 72%
[7]
  growth at 0.01 µM: 97%
[8]
  growth at 0.1 µM: 96%
[9]
  growth at 0.01 µM: 102%
[10]
  GI50: 1720 nM
  TGI: 3230 nM
[11]
  growth at 1 µM: 96%
[12]
  GI50: 1710 nM
  TGI: 4080 nM
[13]
  growth at 100 µM: -47%
[14]
  growth at 100 µM: -38%
[15]
  growth at 100 µM: -22%
[16]
  growth at 0.01 µM: 99%
[17]
  growth at 1 µM: 104%
[18]
  growth at 100 µM: -21%
[19]
  growth at 0.1 µM: 92%
[20]
  growth at 1 µM: 95%
[21]
  growth at 0.1 µM: 95%
[22]
  GI50: 1620 nM
  TGI: 3040 nM
[23]
  growth at 0.01 µM: 97%
[24]
  growth at 1 µM: 96%
[25]
  GI50: 1550 nM
[26]
  growth at 1 µM: 79%
[27]
  growth at 1 µM: 91%
[28]
  growth at 1 µM: 42%
[29]
  growth at 100 µM: -54%
[30]
  growth at 0.01 µM: 103%
[31]
  GI50: 2030 nM
  TGI: 3530 nM
[32]
  growth at 1 µM: 107%
[33]
  growth at 1 µM: 89%
[34]
  growth at 1 µM: 94%
[35]
  growth at 1 µM: 80%
[36]
  growth at 0.01 µM: 96%
[37]
  GI50: 2040 nM
  TGI: 3500 nM
[38]
  growth at 0.1 µM: 99%
[39]
  growth at 0.01 µM: 69%
[40]
  growth at 0.01 µM: 101%

— ChEMBL document CHEMBL3112450, “Synthesis and in vitro antitumor evaluation of primary amine substituted quinazoline linked benzimidazole” (Bioorg Med Chem Lett, 2014)
